By IC50 is commonly meant the concentration at which inhibition is half-maximal. The inhibition is the relative decrease from the control value, in per cent. Higher therefore signals a strong effect. Usually Ki stands for a dissociation constant, usually derived from enzyme kinetics or from competition with a known ligand.

From ChEMBL document CHEMBL2163249, “Exploration of natural compounds as sources of new bifunctional scaffolds targeting cholinesterases and beta amyloid aggregation: the case of chelerythrine” (Bioorg Med Chem, 2012) come the findings set out here.

Assay [1] addresses Cholinesterase (Homo sapiens, UniProt P06276). As to the kind of experiment: Inhibition of human BChE by Ellman's method. The settings on record: read-out: IC50. A general note: In Ellman's method for cholinesterases, released thiocholine reacts with DTNB.
Assay [2] addresses Cholinesterase (Equus caballus) (UniProt P81908). As to conditions: at 2 mg/mL.
Description: Inhibition of horse BChE at 2 mg/ml by Ellman's method
The target of assay [3] is Cholinesterase (Equus caballus, UniProt P81908). As to the kind of experiment: Inhibition of horse BChE by Ellman's method. The settings on record: read-out: IC50.
The target in assay [4] is T1, Acetylcholinesterase (Electrophorus electricus, UniProt O42275). As to the kind of experiment: Competitive inhibition of electric eel AChE using acetyl thiocholine iodide as substrate by Lineweaver-Burk double-reciprocal analysis.
For assay [5], the target named is T1, Acetylcholinesterase. As to the kind of experiment: Inhibition of electric eel AChE by Ellman's method. The settings on record: read-out: IC50.
Assay [6] can be described thus: Inhibition of HFIP-induced amyloid beta (1 to 40) aggregation at 10 uM after 45 mins by thioflavin T fluorescence method.
In assay [7] the target is Acetylcholinesterase (Electrophorus electricus) (UniProt O42275). As to conditions: at 2 mg/mL.
Description: Inhibition of electric eel AChE at 2 mg/ml by Ellman's method
For assay [8], the target named is T2, Acetylcholinesterase (Homo sapiens, UniProt P22303). Nature of the assay: Competitive inhibition of human AChE using acetyl thiocholine iodide as substrate by Lineweaver-Burk double-reciprocal analysis.
A short description of assay [9]: Inhibition of amyloid beta (1 to 40) aggregation assessed as induction of disaggregation treated 45 mins after formation of aggregates by thioflavin T fluorescence method.
The target in assay [10] is T2, Acetylcholinesterase. As to the kind of experiment: Uncompetitive inhibition of human AChE using acetyl thiocholine iodide as substrate by Lineweaver-Burk double-reciprocal analysis.
The target in assay [11] is T2, Acetylcholinesterase.
Description: Inhibition of human AChE by Ellman's method
Assay [12] has as its target T1, Acetylcholinesterase. As to the kind of experiment: Uncompetitive inhibition of electric eel AChE using acetyl thiocholine iodide as substrate by Lineweaver-Burk double-reciprocal analysis.
Assay [13] is described as follows: Inhibition of HFIP-induced amyloid beta (1 to 40) aggregation after 45 mins by thioflavin T fluorescence method.

T2 sequence (P22303 whole entry): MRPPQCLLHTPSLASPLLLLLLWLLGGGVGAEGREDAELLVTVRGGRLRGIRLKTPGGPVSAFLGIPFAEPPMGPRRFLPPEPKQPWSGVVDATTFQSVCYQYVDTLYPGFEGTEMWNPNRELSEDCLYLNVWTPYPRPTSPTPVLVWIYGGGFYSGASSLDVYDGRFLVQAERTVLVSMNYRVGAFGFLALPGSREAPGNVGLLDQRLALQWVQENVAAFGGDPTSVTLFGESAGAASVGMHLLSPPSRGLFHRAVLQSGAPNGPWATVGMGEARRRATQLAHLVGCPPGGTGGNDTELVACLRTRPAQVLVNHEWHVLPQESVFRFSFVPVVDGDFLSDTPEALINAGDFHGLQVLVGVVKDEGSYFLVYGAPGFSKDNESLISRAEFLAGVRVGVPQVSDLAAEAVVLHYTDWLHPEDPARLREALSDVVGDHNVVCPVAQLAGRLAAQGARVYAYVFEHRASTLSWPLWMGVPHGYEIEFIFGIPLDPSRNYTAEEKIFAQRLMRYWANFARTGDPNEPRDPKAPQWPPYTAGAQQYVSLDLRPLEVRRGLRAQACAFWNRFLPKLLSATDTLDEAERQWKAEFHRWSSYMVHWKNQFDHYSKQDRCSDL
T1 sequence (O42275 whole entry): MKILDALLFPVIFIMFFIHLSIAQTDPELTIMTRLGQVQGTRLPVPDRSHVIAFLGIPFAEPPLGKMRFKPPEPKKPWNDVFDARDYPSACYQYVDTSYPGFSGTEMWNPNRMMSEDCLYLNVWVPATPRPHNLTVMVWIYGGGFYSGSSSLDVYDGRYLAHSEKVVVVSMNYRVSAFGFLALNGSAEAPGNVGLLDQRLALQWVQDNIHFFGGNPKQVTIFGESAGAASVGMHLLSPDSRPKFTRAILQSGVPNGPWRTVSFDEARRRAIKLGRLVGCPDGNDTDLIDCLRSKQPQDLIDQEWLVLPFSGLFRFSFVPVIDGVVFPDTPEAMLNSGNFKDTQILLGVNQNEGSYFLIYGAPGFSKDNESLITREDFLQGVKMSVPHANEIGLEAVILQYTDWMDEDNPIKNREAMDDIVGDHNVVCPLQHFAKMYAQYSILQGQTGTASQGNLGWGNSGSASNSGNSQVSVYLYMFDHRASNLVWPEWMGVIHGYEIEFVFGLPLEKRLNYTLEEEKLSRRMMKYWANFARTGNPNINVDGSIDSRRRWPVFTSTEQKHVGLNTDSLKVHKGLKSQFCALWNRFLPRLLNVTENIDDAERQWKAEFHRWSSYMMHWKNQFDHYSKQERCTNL
Chain of Cholinesterase (Equus caballus, UniProt P81908) (P81908 whole entry): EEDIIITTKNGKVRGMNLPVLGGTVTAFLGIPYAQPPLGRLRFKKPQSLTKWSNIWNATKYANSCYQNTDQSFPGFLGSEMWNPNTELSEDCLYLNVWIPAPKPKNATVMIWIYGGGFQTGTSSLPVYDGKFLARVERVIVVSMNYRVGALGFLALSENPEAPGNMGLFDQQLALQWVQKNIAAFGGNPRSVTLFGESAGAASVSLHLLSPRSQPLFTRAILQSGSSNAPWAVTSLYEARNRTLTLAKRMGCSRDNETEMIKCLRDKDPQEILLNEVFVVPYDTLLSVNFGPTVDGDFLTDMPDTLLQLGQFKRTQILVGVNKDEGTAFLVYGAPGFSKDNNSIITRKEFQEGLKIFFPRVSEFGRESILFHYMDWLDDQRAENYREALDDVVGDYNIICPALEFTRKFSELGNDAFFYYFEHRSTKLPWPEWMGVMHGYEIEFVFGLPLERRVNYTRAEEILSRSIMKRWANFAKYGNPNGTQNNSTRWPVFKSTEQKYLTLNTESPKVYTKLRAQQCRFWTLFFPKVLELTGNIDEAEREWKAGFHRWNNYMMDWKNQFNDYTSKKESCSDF
Chain of Cholinesterase (Equus caballus) (P81908 whole entry): as above
Chain of Acetylcholinesterase (Electrophorus electricus) (O42275 24-633 limits assumed): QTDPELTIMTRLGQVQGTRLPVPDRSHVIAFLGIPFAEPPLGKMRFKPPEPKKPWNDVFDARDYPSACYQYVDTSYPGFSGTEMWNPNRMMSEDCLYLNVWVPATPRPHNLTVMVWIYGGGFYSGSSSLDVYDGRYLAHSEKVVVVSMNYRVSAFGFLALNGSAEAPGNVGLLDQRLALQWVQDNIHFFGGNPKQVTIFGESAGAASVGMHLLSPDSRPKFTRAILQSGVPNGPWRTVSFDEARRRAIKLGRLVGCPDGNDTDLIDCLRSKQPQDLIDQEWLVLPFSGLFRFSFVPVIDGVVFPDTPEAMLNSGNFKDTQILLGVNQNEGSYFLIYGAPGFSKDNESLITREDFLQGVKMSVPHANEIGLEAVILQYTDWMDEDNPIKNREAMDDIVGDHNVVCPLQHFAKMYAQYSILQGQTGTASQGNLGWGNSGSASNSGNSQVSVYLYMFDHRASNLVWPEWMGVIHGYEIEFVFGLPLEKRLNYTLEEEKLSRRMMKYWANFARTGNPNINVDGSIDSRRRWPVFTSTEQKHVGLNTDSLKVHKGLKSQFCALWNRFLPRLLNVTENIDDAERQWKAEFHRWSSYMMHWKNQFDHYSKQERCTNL
Chain of Cholinesterase (Homo sapiens, UniProt P06276) (P06276 whole entry): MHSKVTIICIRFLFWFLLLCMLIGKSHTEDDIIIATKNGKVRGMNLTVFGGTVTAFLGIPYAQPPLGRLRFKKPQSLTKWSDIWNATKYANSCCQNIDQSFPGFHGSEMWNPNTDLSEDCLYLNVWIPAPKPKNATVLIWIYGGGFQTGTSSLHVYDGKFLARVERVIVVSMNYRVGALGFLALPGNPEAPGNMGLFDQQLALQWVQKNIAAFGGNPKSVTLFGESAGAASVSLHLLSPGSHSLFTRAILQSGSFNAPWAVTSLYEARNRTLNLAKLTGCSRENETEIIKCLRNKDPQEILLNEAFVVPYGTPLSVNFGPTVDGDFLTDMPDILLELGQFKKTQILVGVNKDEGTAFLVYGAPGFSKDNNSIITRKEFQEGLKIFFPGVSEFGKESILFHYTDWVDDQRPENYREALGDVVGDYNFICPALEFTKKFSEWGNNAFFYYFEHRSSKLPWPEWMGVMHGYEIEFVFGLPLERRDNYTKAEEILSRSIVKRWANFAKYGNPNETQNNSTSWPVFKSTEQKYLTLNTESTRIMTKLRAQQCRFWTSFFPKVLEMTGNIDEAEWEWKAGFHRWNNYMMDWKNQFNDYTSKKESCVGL

`COc1ccc2c(c[n+](C)c3c4cc5c(cc4ccc23)OCO5)c1OC` [CHELERYTHRINE CHLORIDE]: the concentration for half-maximal inhibition (IC50) was 10300 nM on Cholinesterase [1]; 6330 nM at Cholinesterase [3]; 3780 nM on Acetylcholinesterase [5]; 13000 nM in assay [9]; 1540 nM on Acetylcholinesterase [11]; 4200 nM in [13]. Also, the values for the inhibition in assay [2], in assay [6] and in assay [7] were 83.5%, 67% and 75.9%, respectively. Moreover, the inhibition constant (Ki) at Acetylcholinesterase [4] came to 480 nM; at Acetylcholinesterase [8], 320 nM; on Acetylcholinesterase [10], 1120 nM; on Acetylcholinesterase [12] it was 920 nM.
